Experimental data as given in BigSolDB 2.1.

N=C(N)N.O=[N+]([O-])O
Conditions	solubility (mole fraction)
in acetone, 278.15 K	0.0003
in acetone, 283.15 K	0.0005
in acetone, 288.15 K	0.0009
in acetone, 293.15 K	0.0016
in acetone, 298.15 K	0.0029
in acetone, 303.15 K	0.0052
in acetone, 308.15 K	0.0092
in acetone, 313.15 K	0.0158
in acetone, 323.15 K	0.0503
in ethanol, 278.05 K	0.003
in ethanol, 283.15 K	0.0037
in ethanol, 288.35 K	0.0043
in ethanol, 293.15 K	0.0051
in ethanol, 298.25 K	0.0062
in ethanol, 303.25 K	0.007
in ethanol, 308.25 K	0.0081
in ethanol, 313.05 K	0.0094
in ethanol, 318.05 K	0.0108
in ethanol, 323.25 K	0.0124
in ethanol, 328.35 K	0.0143
in methanol, 278.25 K	0.0063
in methanol, 283.25 K	0.0075
in methanol, 288.25 K	0.0092
in methanol, 293.25 K	0.0107
in methanol, 298.35 K	0.0126
in methanol, 303.15 K	0.0148
in methanol, 308.35 K	0.0174
in methanol, 313.15 K	0.0198
in methanol, 318.25 K	0.0227
in methanol, 323.35 K	0.0264
in methanol, 328.05 K	0.0305
in n-propanol, 278.25 K	0.0009
in n-propanol, 283.25 K	0.0013
in n-propanol, 288.25 K	0.0017
in n-propanol, 293.15 K	0.002
in n-propanol, 298.35 K	0.0029
in n-propanol, 303.15 K	0.0041
in n-propanol, 308.35 K	0.0048
in n-propanol, 313.15 K	0.0061
in n-propanol, 318.25 K	0.0077
in n-propanol, 323.15 K	0.0092
in n-propanol, 328.05 K	0.012
in water, 278.25 K	0.009
in water, 283.35 K	0.0112
in water, 288.25 K	0.0136
in water, 292.95 K	0.0157
in water, 298.25 K	0.019
in water, 303.15 K	0.0222
in water, 308.35 K	0.0262
in water, 313.05 K	0.0302
in water, 318.25 K	0.0349
in water, 323.25 K	0.0401
in water, 328.35 K	0.0463
in water, 332.85 K	0.0511
